Active and inactive are the calls of the source. The rule behind the calls is not given here.

The first assay can be described thus: inhibitors of CD40 signaling, dose response, B cell lineage (AID 1259332).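 Note: cells stimulated with CD40 ligand tCD40L; 0% = neutral control wells and -100% = positive control wells.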 To be noted: B cell line, CD40 signaling inhibition reporter; at 0.38 µM (top of the series).
Turning to `O=C1C(=Cc2ccccc2[N+](=O)[O-])Cc2ccccc21`, the activity change, negative = inhibition was 19.6% (inactive).

Staying with this assay, now noted: B cell line, CD40 signaling inhibition reporter; at 1.1 µM (top of the series).
Regarding `CC(C)(C)[S@](=O)N1Cc2cc(C(=O)NCC(F)(F)F)nc(-c3cccc(-c4cccc(F)c4)c3)c2[C@@H]1CCO`, the activity change, negative = inhibition is 9.18% (inactive).

On to `C[C@@H]1CCCCO[C@@H](CN(C)S(=O)(=O)c2ccc(Cl)cc2)[C@H](C)CN([C@H](C)CO)C(=O)c2cc(NC(=O)Nc3ccc(C(F)(F)F)cc3)ccc2O1`, for which the activity change, negative = inhibition is 1.11% (inactive).

Take `CO[C@@H](CN(C)S(=O)(=O)c1ccc(Cl)cc1)[C@H](C)CN(Cc1ccccc1Cl)[C@@H](C)CO`: the activity change, negative = inhibition is 0.243% (inactive).

Staying with this assay, now noted: B cell line, CD40 signaling inhibition reporter; at 3 µM (top of the series).
`O=C(Nc1ccccc1F)N1C[C@@H]2N[C@H](C1)C2c1ccc(/C=C/c2ccccc2)cc1` (stereo not given in full): the activity change, negative = inhibition was 2.39% (inactive).

The assay is the same for the next values; noted with them: B cell line, CD40 signaling inhibition reporter; at 3.5 µM (top of the series).
Consider `COc1ccc(Cl)cc1NC(=O)Nc1cc(C)nc2ccccc12`, for which the activity change, negative = inhibition was -7.79% (inactive).

Consider `N#C[C@@H]1[C@@H](c2ccccc2)[C@H](CO)N1C(=O)CN1CCOCC1`, for which the activity change, negative = inhibition is -5.63% (inactive).

In the case of `CCCNC(=O)N1[C@H](C#N)[C@@H](c2ccc(-c3cccc(OC)c3)cc2)[C@H]1CO`, the activity change, negative = inhibition is 1.94% (inactive).

On to `COc1cccc(S(=O)(=O)N(C)C[C@H]2OCc3ccccc3-c3c(n(C)c4ccccc34)C(=O)N([C@@H](C)CO)C[C@H]2C)c1`, for which the activity change, negative = inhibition is -5.41% (inactive).

In the case of `N#C[C@H]1[C@@H](c2ccc(C#CC3CCCCC3)cc2)[C@@H](CO)N1C(=O)Nc1ccc(F)cc1`, the activity change, negative = inhibition was 2.75% (inactive).

`O=C(Nc1ccc(C(F)(F)F)cc1)Nc1ccc2c(c1)[C@H]1C[C@@H](CC(=O)N3CCc4ccccc4C3)O[C@H](CO)[C@H]1O2`: the activity change, negative = inhibition was 0.714% (inactive).

With `Cc1noc(C)c1NC(=O)N(C)C[C@@H]1OCCCC[C@@H](C)Oc2ccc(NC(=O)Nc3ccc(C(F)(F)F)cc3)cc2C(=O)N([C@H](C)CO)C[C@H]1C`, the activity change, negative = inhibition is -11.7% (inactive).

Consider `Cc1noc(C)c1S(=O)(=O)Nc1ccc2c(c1)C(=O)N([C@H](C)CO)C[C@H](C)[C@@H](CN(C)C(=O)Nc1cccc3ccccc13)OCCCC[C@H](C)O2`, for which the activity change, negative = inhibition is -1% (inactive).

For `O=C(Nc1ccc(C(F)(F)F)cc1)Nc1ccc2c(c1)[C@H]1C[C@@H](CC(=O)N3CCc4ccccc4C3)O[C@@H](CO)[C@H]1O2`, the activity change, negative = inhibition was -2.03% (inactive).

With `CC1=CC(=O)c2ccccc2C1=O`, the activity change, negative = inhibition was 11.2% (inactive).

Regarding `Cc1ccccc1-c1ccc(C2[C@@H]3CN(C(=O)Nc4cccc(F)c4)C[C@H]2N3)cc1` (stereo not given in full), the activity change, negative = inhibition is 7.95% (inactive).

Regarding `COc1ccc(S(=O)(=O)N(C)C[C@@H]2Oc3ccc(NC(=O)Nc4ccc(C(F)(F)F)cc4)cc3C(=O)N([C@H](C)CO)C[C@H]2C)cc1`, the activity change, negative = inhibition is -10.6% (inactive).

Consider `O=C(CCN1CCC(c2ccccc2)C1)c1ccc2c(c1)OCCO2` (stereo not given), for which the activity change, negative = inhibition was 26.9% (inactive).

In the case of `C[C@H]1CN([C@@H](C)CO)C(=O)c2c(c3ccccc3n2C)-c2ccccc2CO[C@H]1CN(C)S(=O)(=O)c1ccc([N+](=O)[O-])cc1`, the activity change, negative = inhibition was -3.2% (inactive).

Take `CCCNC(=O)N1[C@H](CO)[C@H](c2ccc(-c3cccc(OC)c3)cc2)[C@@H]1C#N`: the activity change, negative = inhibition is 12% (inactive).

With `N#C[C@H]1[C@H](c2ccc(C#CC3CCCCC3)cc2)[C@@H](CO)N1C(=O)Nc1ccc(F)cc1`, the activity change, negative = inhibition was -2.23% (inactive).

On to `C[C@]12CC[C@H](O)C[C@H]1CC[C@@H]1[C@@H]2CC[C@]2(C)[C@@H](c3ccc(=O)oc3)CC[C@]12O`, for which the activity change, negative = inhibition is 1.4% (inactive).

In the case of `C[C@@H]1CCCCO[C@@H](CN(C)C(=O)C2CCCCC2)[C@@H](C)CN([C@H](C)CO)C(=O)c2cc(NS(=O)(=O)c3ccccc3)ccc2O1`, the activity change, negative = inhibition was -0.82% (inactive).

The same assay, now with this note: B cell line, CD40 signaling inhibition reporter; at 10 µM (top of the series).
On to `Cc1ccc(-c2cc(C(=O)N3CCCC(C(F)(F)F)C3)c3ccccc3n2)o1` (stereo not given), for which the activity change, negative = inhibition was 16.7% (inactive).

With `COc1ccc2c3c(n(C)c2c1)[C@H](CO)N(C(=O)Nc1ccc(F)cc1)CC31CCN(C(=O)c2ccc3c(c2)OCO3)CC1`, the activity change, negative = inhibition was 7.94% (inactive).

As to `OC1(c2ccc(Cl)c(C(F)(F)F)c2)CCN(CCCC(c2ccc(F)cc2)c2ccc(F)cc2)CC1`, the activity change, negative = inhibition is 3.82% (inactive).

Consider `C(=Cc1c[nH]c2ccccc12)c1nccc2ccccc12`, for which the activity change, negative = inhibition is 74.5% (inactive).

Consider `CCN1C(=O)C(CC(=O)Nc2ccc(OC)cc2)N(CCc2ccc(F)cc2)C1=S` (stereo not given), for which the activity change, negative = inhibition was -3.22% (inactive).

Consider `OC(CCN1CCCCC1)c1ccc(-c2ccccc2)cc1` (stereo not given), for which the activity change, negative = inhibition is 40.4% (inactive).

For `COc1cccc(OC)c1OCCNCC1COc2ccccc2O1` (stereo not given), the activity change, negative = inhibition is 18.1% (inactive).

For the compound `COc1ccc(NC(=O)O/N=C/c2c(C)nn(C(C)(C)C)c2C)cc1`, the activity change, negative = inhibition was 13.9% (inactive).

Regarding `C[C@@H]1CN([C@@H](C)CO)C(=O)c2ccccc2-c2ccccc2CO[C@@H]1CN(C)C(=O)c1cc(Cl)cc(Cl)c1`, the activity change, negative = inhibition is -6.79% (inactive).

With `O=C1C(O)CC2c3ccccc3CC3(CCCC3)N12` (stereo not given), the activity change, negative = inhibition was 0.899% (inactive).

With `COc1cccc(S(=O)(=O)N(C)C[C@@H]2OCc3ccccc3-c3c(n(C)c4ccccc34)C(=O)N([C@@H](C)CO)C[C@@H]2C)c1`, the activity change, negative = inhibition is 8.02% (inactive).

In the case of `O=C1C(Br)=C(c2ccccc2)C(c2ccccc2)=C1c1ccccc1`, the activity change, negative = inhibition was -7.86% (inactive).

In the case of `O=C(CNCCO)N1N=C(c2cccs2)CC1c1cccs1` (stereo not given), the activity change, negative = inhibition is 12.3% (inactive).

For the compound `Cc1ccc2c(c1)C(O)(CC(=O)/C=C/C=C/c1ccccc1)C(=O)N2` (stereo not given), the activity change, negative = inhibition was -5.49% (inactive).

As to `N=C(N)c1ccc(OCCCCCOc2ccc(C(=N)N)cc2)cc1`, the activity change, negative = inhibition is -0.281% (inactive).

Take `COc1ccc(S(=O)(=O)N(C)C[C@@H]2Oc3ccc(NC(=O)Nc4ccc(C(F)(F)F)cc4)cc3C(=O)N([C@@H](C)CO)C[C@@H]2C)cc1`: the activity change, negative = inhibition was 8.35% (inactive).

With `Cc1noc(C)c1S(=O)(=O)Nc1ccc2c(c1)C(=O)N([C@@H](C)CO)C[C@H](C)[C@@H](CN(C)C(=O)Nc1cccc3ccccc13)OCCCC[C@H](C)O2`, the activity change, negative = inhibition was -10.1% (inactive).

In the case of `CCN(CC(=O)Nc1ccc(NC(C)=O)cc1)C(=O)C1CCCN(C(=O)c2ccc(Cl)cc2)C1` (stereo not given), the activity change, negative = inhibition is 0.336% (inactive).

Take `O=C(NCc1ccccn1)C1CCCN(S(=O)(=O)c2ccccc2)C1` (stereo not given): the activity change, negative = inhibition was 8.97% (inactive).

Take `CC12CC[C@H]3[C@@H](CCC4(O)C[C@H](O)CCC34/C=N/NC(=O)Cc3ccccc3)C1(O)CCC2C1=CC(=O)OC1` (stereo not given in full): the activity change, negative = inhibition is 5.75% (inactive).

With `C[C@@H]1CN([C@H](C)CO)C(=O)c2c(c3ccccc3n2C)-c2ccccc2CO[C@H]1CN(C)C(=O)Nc1ccccc1C(F)(F)F`, the activity change, negative = inhibition was -0.491% (inactive).

Consider `CC(C)(C)n1cc(C(=O)c2ccc3ccccc3c2O)cn1`, for which the activity change, negative = inhibition was -16.1% (inactive).

Values taken from PubChem BioAssay AID1259332 (Broad Institute, 2017).
